≈ marks a conversion by molar mass, not a printed value.
What was measured:
Format in all cases: functional
Culex pipiens pallens [1] = assay: Larvicidal activity against fourth-instar larval stage of Culex pipiens pallens (mosquito) assessed as mortality at 0.05 mg/l at 25 +/-1 degC after 8 days; conditions: 192 h
Mythimna separata [2] = assay: Larvicidal activity against fourth-instar larval stage of Mythimna separata (Oriental armyworm) in compound-pretreated corn leaves assessed as mortality at 5 mg/l at 25 +/-1 degC after 4 days
Culex pipiens pallens [3] = assay: Larvicidal activity against fourth-instar larval stage of Culex pipiens pallens (mosquito) assessed as mortality at 0.005 mg/l at 25 +/-1 degC after 8 days; conditions: 192 h
Mythimna separata [4] = assay: Larvicidal activity against fourth-instar larval stage of Mythimna separata (Oriental armyworm) in compound-pretreated corn leaves assessed as mortality at 2.5 mg/l at 25 +/-1 degC after 4 days
Culex pipiens pallens [5] = assay: Ratio of larvicidal activity of compound to larvicidal activity of Flucycloxuron for fourth-instar larval stage of Culex pipiens pallens (mosquito) measured after 8 days
Culex pipiens pallens [6] = assay: Larvicidal activity against fourth-instar larval stage of Culex pipiens pallens (mosquito) assessed as mortality at 0.0025 mg/l at 25 +/-1 degC after 8 days; conditions: 192 h
Culex pipiens pallens [7] = assay: Larvicidal activity against fourth-instar larval stage of Culex pipiens pallens (mosquito) assessed as mortality at 0.1 mg/l at 25 +/-1 degC after 8 days; conditions: 192 h
Culex pipiens pallens [8] = assay: Larvicidal activity against fourth-instar larval stage of Culex pipiens pallens (mosquito) assessed as mortality at 0.01 mg/l at 25 +/-1 degC after 8 days; conditions: 192 h
Culex pipiens pallens [9] = assay: Larvicidal activity against fourth-instar larval stage of Culex pipiens pallens (mosquito) assessed as mortality at 0.025 mg/l at 25 +/-1 degC after 8 days; conditions: 192 h
Culex pipiens pallens [10] = assay: Larvicidal activity against fourth-instar larval stage of Culex pipiens pallens (mosquito) assessed as mortality at 0.0005 mg/l at 25 +/-1 degC after 8 days; conditions: 192 h
Culex pipiens pallens [11] = assay: Larvicidal activity against fourth-instar larval stage of Culex pipiens pallens (mosquito) assessed as mortality at 0.00025 mg/l at 25 +/-1 degC after 8 days; conditions: 192 h
Mythimna separata [12] = assay: Larvicidal activity against fourth-instar larval stage of Mythimna separata (Oriental armyworm) in compound-pretreated corn leaves assessed as mortality at 0.5 mg/l at 25 +/-1 degC after 4 days
Mythimna separata [13] = assay: Larvicidal activity against fourth-instar larval stage of Mythimna separata (Oriental armyworm) in compound-pretreated corn leaves assessed as mortality at 0.25 mg/l at 25 +/-1 degC after 4 days
Mythimna separata [14] = assay: Larvicidal activity against fourth-instar larval stage of Mythimna separata (Oriental armyworm) in compound-pretreated corn leaves assessed as mortality at 1 mg/l at 25 +/-1 degC after 4 days
Culex pipiens pallens [15] = assay: Larvicidal activity against fourth-instar larval stage of Culex pipiens pallens (mosquito) assessed as mortality at 0.001 mg/l at 25 +/-1 degC after 8 days; conditions: 192 h
Mythimna separata [16] = assay: Larvicidal activity against fourth-instar larval stage of Mythimna separata (Oriental armyworm) in compound-pretreated corn leaves assessed as mortality at 10 mg/l at 25 +/-1 degC after 4 days
Mythimna separata [17] = assay: Larvicidal activity against fourth-instar larval stage of Mythimna separata (Oriental armyworm) in compound-pretreated corn leaves assessed as mortality at 25 mg/l at 25 +/-1 degC after 4 days
Mythimna separata [18] = assay: Larvicidal activity against fourth-instar larval stage of Mythimna separata (Oriental armyworm) in compound-pretreated corn leaves assessed as mortality at 200 mg/l at 25 +/-1 degC after 4 days
Culex pipiens pallens [19] = assay: Larvicidal activity against fourth-instar larval stage of Culex pipiens pallens (mosquito) assessed as mortality at 0.25 mg/l at 25 +/-1 degC after 8 days; conditions: 192 h
Mythimna separata [20] = assay: Larvicidal activity against fourth-instar larval stage of Mythimna separata (Oriental armyworm) in compound-pretreated corn leaves assessed as mortality at 100 mg/l at 25 +/-1 degC after 4 days
Mythimna separata [21] = assay: Larvicidal activity against fourth-instar larval stage of Mythimna separata (Oriental armyworm) in compound-pretreated corn leaves assessed as mortality at 50 mg/l at 25 +/-1 degC after 4 days
Culex pipiens pallens [22] = assay: Larvicidal activity against fourth-instar larval stage of Culex pipiens pallens (mosquito) assessed as mortality at 0.5 mg/l at 25 +/-1 degC after 8 days; conditions: 192 h
Culex pipiens pallens [23] = assay: Larvicidal activity against fourth-instar larval stage of Culex pipiens pallens (mosquito) assessed as mortality at 1 mg/l at 25 +/-1 degC after 8 days; conditions: 192 h
Culex pipiens pallens [24] = assay: Larvicidal activity against fourth-instar larval stage of Culex pipiens pallens (mosquito) assessed as mortality at 2 mg/l at 25 +/-1 degC after 8 days; conditions: 192 h
Cucumis sativus = assay: Growth regulation of Cucumis sativus (cucumber) seeds assessed as stimulation of radicle growth at 10 mg/l at 26 degC after 5 days
Mythimna separata [25] = assay: Ratio of Flucycloxuron LC50 to compound LC50 for fourth-instar larval stage of Mythimna separata (Oriental armyworm) measured after 4 days
Mythimna separata [26] = assay: Ratio of Hexaflumuron LC50 to compound LC50 for fourth-instar larval stage of Mythimna separata (Oriental armyworm) measured after 4 days
Mythimna separata [27] = assay: Larvicidal activity against fourth-instar larval stage of Mythimna separata (Oriental armyworm) in compound-pretreated corn leaves assessed as mortality at 25 +/-1 degC after 4 days
Mythimna separata [28] = assay: Larvicidal activity against fourth-instar larval stage of Mythimna separata (Oriental armyworm) in compound-pretreated corn leaves assessed as mortality at 0.125 mg/l at 25 +/-1 degC after 4 days

Row | SMILES | mortality at 0.05 µg/mL (Culex pipiens pallens [1]) | mortality at 5 µg/mL (Mythimna separata [2]) | mortality at 0.005 µg/mL (Culex pipiens pallens [3]) | mortality at 2.5 µg/mL (Mythimna separata [4]) | RatioLC50 (Culex pipiens pallens [5]) | mortality at 0.0025 µg/mL (Culex pipiens pallens [6]) | mortality at 0.1 µg/mL (Culex pipiens pallens [7]) | mortality at 0.01 µg/mL (Culex pipiens pallens [8]) | mortality at 0.025 µg/mL (Culex pipiens pallens [9]) | mortality at 0.5 µg/mL (Mythimna separata [12]) | mortality at 0.25 µg/mL (Mythimna separata [13]) | mortality at 1 µg/mL (Mythimna separata [14]) | mortality at 0.001 µg/mL (Culex pipiens pallens [15]) | mortality at 10 µg/mL (Mythimna separata [16]) | mortality at 25 µg/mL (Mythimna separata [17]) | mortality at 200 µg/mL (Mythimna separata [18]) | mortality at 0.25 µg/mL (Culex pipiens pallens [19]) | mortality at 0.5 µg/mL (Culex pipiens pallens [22]) | mortality at 1 µg/mL (Culex pipiens pallens [23]) | mortality at 2 µg/mL (Culex pipiens pallens [24]) | other results
1 | O=C(NC(=O)c1c(F)cccc1F)Nc1ccc(/C=N/OC(C(F)(F)F)C(F)(F)F)cc1 | 100% | 100% | 100% | 100% | 10 | 100% | 100% | 100% | 100% | 40% | 0% | 90% | 90% | 100% | 100% |  |  |  |  |  | mortality at 0.0005 µg/mL (Culex pipiens pallens [10]): 60%; mortality at 0.00025 µg/mL (Culex pipiens pallens [11]): 30%
2 | O=C(NC(=O)c1c(F)cccc1F)Nc1ccc(/C=N/OCC2CCCC2)cc1 |  |  |  |  |  |  | 10% |  |  |  |  |  |  | 0% | 10% | 80% | 10% | 10% | 100% | 100% | mortality at 100 µg/mL (Mythimna separata [20]): 40%; mortality at 50 µg/mL (Mythimna separata [21]): 10%
3 | O=C(NC(=O)c1c(F)cccc1F)Nc1ccc(/C=N/O)cc1 |  |  |  |  |  |  | 10% |  |  |  |  |  |  |  |  | 80% | 40% | 60% | 100% | 100% | 
4 | O=C(NC(=O)c1c(F)cccc1F)Nc1ccc(/C=N/OCC(F)(F)F)cc1 | 100% | 100% | 100% | 100% | 10 | 70% | 100% | 100% | 100% | 60% | 0% | 90% | 10% | 100% | 100% |  |  |  |  |  | 
5 | CC(C)O/N=C/c1ccc(NC(=O)NC(=O)c2c(F)cccc2F)cc1 | 100% |  | 75% | 100% |  | 15% | 100% | 100% | 100% | 50% | 0% | 100% | 0% |  |  |  | 100% | 100% | 100% |  | Activity (Cucumis sativus): 55%; RatioLC50 (Mythimna separata [25]): 5; RatioLC50 (Mythimna separata [26]): 9.4; LC50 (Mythimna separata [27]): 0.5 µg/mL (≈ 1.38 µM)
6 | CC(C)(C)O/N=C/c1ccc(NC(=O)NC(=O)c2c(F)cccc2F)cc1 | 100% | 100% | 100% | 100% | 10 | 90% | 100% | 100% | 100% | 85% | 0% | 100% | 70% | 100% | 100% |  |  |  |  |  | RatioLC50 (Mythimna separata [25]): 5; mortality at 0.0005 µg/mL (Culex pipiens pallens [10]): 20%
7 | CC1CCC(C(C)C)C(O/N=C/c2ccc(NC(=O)NC(=O)c3c(F)cccc3F)cc2)C1 (centres undefined) |  | 100% | 100% | 100% | 10 | 100% |  | 100% |  | 40% | 10% | 80% | 80% | 100% | 100% |  |  |  |  |  | mortality at 0.125 µg/mL (Mythimna separata [28]): 0%; mortality at 0.0005 µg/mL (Culex pipiens pallens [10]): 10%
8 | O=Cc1ccc(NC(=O)NC(=O)c2c(F)cccc2F)cc1 |  |  |  |  |  |  |  |  |  |  |  |  |  |  |  | 0% |  | 0% | 80% | 100% | mortality at 100 µg/mL (Mythimna separata [20]): 0%
9 | C[Si](C)(C)O/N=C/c1ccc(NC(=O)NC(=O)c2c(F)cccc2F)cc1 |  |  |  |  |  |  |  |  |  |  |  |  |  |  |  | 100% | 0% | 100% | 100% | 100% | mortality at 100 µg/mL (Mythimna separata [20]): 60%; mortality at 50 µg/mL (Mythimna separata [21]): 0%

— ChEMBL document CHEMBL3045590, “Design, synthesis, bioactivity, and structure-activity relationship (SAR) studies of novel benzoylphenylureas containing oxime ether group” (2008)
